Columns and labels:
Type in all cases: cell-based
[1] = biological target: T1, CK1α (Homo sapiens, UniProt P48729); test: Detection of protein degradation by the drug (Western blot); conditions: MOLT-4 cells
T1 construct: endogenous in cells; host or cells: MOLT-4

[2] = biological target: T2, Wee1 (Homo sapiens, UniProt P30291); test: Detection of compounds that degrade Wee1 protein (Western blot); set-up: endogenous in cells; host or cells: MOLT-4, U87-MG; conditions: MOLT-4 cells 10 μM 4 hours, U87-MG cells 1 μM 24 hours
Experimental: MOLT-4 cells were treated with 10 μM of the test compound for 4 hours and U87-MG cells were treated with 1 μM of the test compound for 24 hours, respectively. With GAPDH (Santa Cruz, sc-32233) as the internal reference protein, the protein level of Wee1 (Cell Signaling, 13084S) was detected using Western blot. Cells were collected, lysed with protein loading buffer (1M Tris-HCl, 10% SDS, 0.025% BPB), and denatured at 98° C. for 10 min before Western blot analysis. The main steps include: 1) Electrophoresis: The protein was separated by SDS-PAGE electrophoresis. During the electrophoresis, the voltage was adjusted to 80 v for about 30 min, and then the voltage was adjusted to 120 v until the bromophenol blue ran out of the gel. 2) Transfer to a membrane: the gel was stuck to a methanol-activated PVDF membrane using the method of wet transfer, and after the top and bottom layers were wrapped with filter paper, the membrane was placed into the gel holder cassette and fixed to the transfer tank, and transfer was performed at a constant current of 250 mA for 90 min; 3) Blocking: the PVDF membrane with trace protein was placed into the antibody incubation box, 5% skim milk was added to completely cover the PVDF membrane, and incubation was performed for 1 hour on a shaker at room temperature; 4) Incubation of the primary antibody: the primary antibody was prepared with 5% BSA (1:1000) and incubated overnight on a shaker at 4° C.; 5) Incubation of the secondary antibody: the membrane was washed thrice with TBST, the secondary antibody (prepared with 5% skim milk) was added (according to the species source of the primary antibody, different secondary antibodies with a dilution range of 1:3000-1:10000 were used), and incubation was performed on a shaker at room temperature for one hour; 5) Exposure: the membrane was washed thrice with TBST and the bands on the membrane were detected by chemiluminescence.

[3] = tested on: MM.1S cells; test: Sensitivity of MM.1S versus low-CRBN-expression MM.1S-p5000 cells to WX106 (CCK-8); conditions: 10 μM, 72 h, MM.1S-p5000 versus MM.1S
Experimental: WX106 (10 μM) was added to MM.1S cells and MM.1S-p5000 (Poma-resistant low-CRBN-expression cell line) cells, respectively, and cell proliferation was detected by CCK-8 after 72 h.

[4] = biological target: CRBN (Homo sapiens, UniProt Q96SW2); test: Protein degradation competition experiment (CC885-induced GSPT1 degradation); set-up: endogenous in cells; host or cells: MOLT-4; conditions: MOLT-4 cells, co-treated with 10 nM CC885, 4 hours, Western blot
Experimental: MOLT-4 cells were co-treated with 0.1, 1 and 10 μM of WX106 and 10 nM of CC885 for 4 hours, and the protein level of GSPT1 was then detected by Western blot, with Poma (Pomalidomide, Selleck, S1567) acting as the positive control in the experiment. Cells were collected and denatured in protein loading buffer (50 mM Tris-HCL 2% SDS, 0.025% BPB, 1% β-mercaptoethanol, 10% glycerol) at 98° C. for 10 min. Proteins were separated by SDS-PAGE and transferred to a PVDF membrane (Millipore, IPVH00010), blocked with 5% skim milk (dissolved in TBST buffer), incubated with a primary antibody overnight at 4° C., and then incubated with a secondary antibody (Anti-rabbit IgG, HRP-linked Antibody, Cell Signaling, 7074S) at room temperature for 1 hour, and the bands on the membrane were detected by chemiluminescence (ECL chemiluminescence kit, Beyotime Biotechnology, P0018AM).

[5] = biological target: T3, GSPT1 (Homo sapiens, UniProt P15170); test: Detection of protein degradation by the drug (Western blot); conditions: MOLT-4 cells
T3 construct: endogenous in cells; host or cells: MOLT-4

[6] = biological target: T2, Wee1; test: Label-free quantitative mass spectrometry for proteomic analysis; set-up: endogenous in cells; host or cells: MOLT-4; conditions: MOLT-4, 10 μM WX106 (10 μM MG132 where added), 6 hours, replicates
Experimental: There are three treatment methods for the selected MOLT-4 cells; one is to directly add DMSO as a control, the other is to add 10 μM WX106, and the third is to add 10 μM WX106 and 10 μM MG132 (proteasome inhibitor; APEXBIO, A2585 and MG132 are capable of blocking ubiquitin-mediated protein degradation). Two replicates were prepared for the 10 μM WX106 plus 10 μM MG132 group, and three replicates were prepared for the DMSO control group and 10 μM WX106 administration group, respectively. The drug treatment time for MOLT-4 was 6 hours. Mass spectrometry samples were prepared based on the basic steps of urea cleavage, reductive alkylation, desalting, and lyophilization. The prepared samples were subjected to two-hour gradient analysis on a Q Exactive HF mass spectrometer, followed by data analysis.

[7] = biological target: T4, Wee1-CRBN complex (Homo sapiens, UniProt P30291+Q96SW2); test: Co-immunoprecipitation; conditions: 293T cells
T4 construct: expressed in transfected cells; host or cells: 293T
Experimental: The plasmid was transfected into 293T cells. After 24 hours, the compound WX106 was added to treat the cells for a certain period of time. The cells were lysed with NETN lysis buffer (150 mM NaCl, 50 mM Tris-HCl of pH 8.0, 1% NP40), followed by incubation with agarose beads (EZview™ Red anti-HA affinity gel, Sigma, E6779; anti-FLAG® M2 affinity gel, Sigma, A2220) and lysis buffer for 2 hours. The beads were washed 4 times with lysis buffer, loading buffer (100 mM Tris-HCl, 4% SDS, 0.05% BPB, 2% β-mercaptoethanol, 20% glycerol) was added and detection was performed using Western blot.
According to FIG. 24, HA CRBN (CRBN was overexpressed in cells by transfection technology; HA is a polypeptide and CRBN fusion expression; CRBN refers to endogenous CRBN in cells) and FLAG Wee1 (Wee1 was overexpressed in cells by transfection technology; FLAG is a polypeptide and CRBN fusion expression; Wee1 refers to endogenous Wee1 in cells) were overexpressed in 293T cells [and left to stand] for 24 hours after transfection; thereafter, the cells were treated with 20 μM MG132 or 10 μM WX106 1 h and 2 h before they were harvested for Co-IP (co-immunoprecipitation) assay, respectively. […] According to FIG. 26, overexpressed CRBN and endogenous Wee1 were used for co-immunoprecipitation. […] According to FIG. 27, different Wee1 fragments were cloned separately and subjected to Co-IP with CRBN.

Cc1ccc(C(=O)Nc2ccc3occ(C4CCC(=O)NC4=O)c3c2)cc1Cl (stereo not drawn) [WX106] was tested, and the “pro-degradation effect on CK1α” value [1] was “no significant pro-degradation effect”, the “pro-degradation effect on Wee1” value [2] was “pro-degradation effect on Wee1” and the “relative strength of the pro-degradation effect on Wee1” value ([2]; among tested compounds) was “the strongest”. The “sensitivity of cells to WX106 with low CRBN expression” value [3] was “significantly less sensitive”, the “effect on degradation of GSPT1 induced by CC885” value [4] was “reversed” and the “pro-degradation effect on GSPT1” value [5] was “no significant pro-degradation effect”. The “Wee1 LFQ intensity” value [6] was 0, the “complex formed by Wee1 and CRBN (HA CRBN and FLAG Wee1 overexpressed)” value ([7]; 10 μM WX106, 20 μM MG132, FIG. 24) was “significantly increased” and the “complex formed by Wee1 and CRBN (overexpressed CRBN and endogenous Wee1)” value ([7]; FIG. 26) was “significantly increased”.
